ChEMBL document CHEMBL1201862, “PubChem BioAssay data set” (2004)
Calls of active or inactive are those of the source.

Legend:
[1] = liver cell line viability loss – HepG2, luminescence plate reader, powder samples, set 2, cytotoxicity control, dose response (AID 651860); type: functional, cell-based
[2] = Late-stage results from the probe development effort to identify antagonists of arginine vasopressin receptor 1a (AVPR1a): fluorescence-based cell-based dose response AVPR1a inhibition assay.; type: functional
Vasopressin V1b receptor = Vasopressin V1b receptor (Homo sapiens, UniProt P47901); test: Late-stage results from the probe development effort to identify antagonists of arginine vasopressin receptor 1a (AVPR1a): fluorescence-based cell-based dose response AVPR1b inhibition counterscreen assay.; type: functional
Vasopressin V2 receptor = Vasopressin V2 receptor (Homo sapiens, UniProt P30518); test: Late-stage results from the probe development effort to identify antagonists of arginine vasopressin receptor 1a (AVPR1a): fluorescence-based cell-based dose response AVPR2 inhibition counterscreen assay.; type: functional
[3] = Late-stage results from the probe development effort to identify antagonists of arginine vasopressin receptor 1a (AVPR1a): fluorescence-based cell-based dose response OXTR inhibition counterscreen assay.; type: functional
[4] = YAP1 overexpression rescue of CTGF inhibition – DLD1 cells, RT-qPCR, cherry-pick, mechanism study for YAP1 pathway inhibitor project, dose response (AID 1053127); type: functional, cell-based; details: DLD-1
[5] = CTGF mRNA reduction in DLD1 cells – cell-based, DLD1 colon cancer, RT-qPCR, cherry-pick, dose response (AID 1053122); type: functional; details: Cancer cell lines
[6] = Dd2 parasite growth inhibition in erythrocytes – SYBR Green, dry powder samples, set 9, dose response (AID 1159568); type: functional, cell-based
[7] = toxicity to A549 lung cells – cell-based, plate reader, dry powder, set 6, cytotoxicity control, dose response (AID 743312); type: functional
cells = details: HEK293
[8] = BioA aminotransferase inhibition, coupled fluorescent readout – biochemical, coupled fluorescence displacement, 20-point, dry powder, dose response (AID 743357); type: functional
[9] = growth inhibition of yeast DHODH-expressing 3D7 parasites – SYBR Green, dry powder samples, dose response (AID 1159570); type: functional, cell-based;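 note: parasite growth measured after 72 hours of compound exposure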
[10] = toxicity to human HepG2 hepatoma cells – cell-based, plate reader, dry powder samples, cytotoxicity control, dose response (AID 1159569); type: functional;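 note: inhibitor potency with signal falling toward the positive control level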
[11] = P. falciparum Dd2 growth inhibitors, dose response, SYBR Green, cherry-picked samples (AID 1159567); type: functional, cell-based
[12] = Dd2 malaria parasite growth inhibition potency – SYBR Green, dry powder samples, dose response (AID 1159566); type: functional, cell-based;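 note: potency for growth inhibition with lower SYBR green DNA signal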
[13] = toxicity to human hepatoma HepG2 cells – cell-based, cherry-picked samples, cytotoxicity control, dose response (AID 1159577); type: functional
[14] = Plasmodium falciparum Dd2 Sybr green parasite growth Measured in Cell-Based and Microorganism Combination System Using Plate Reader - 2153-01_Inhibitor_Dose_DryPowder_Activity_Set3.; type: functional
[15] = growth inhibition of PfATP4-mutant resistant parasites – NITD609-resistant line, SYBR Green, dry powder, dose response (AID 1159571); type: functional, cell-based;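 note: parasites synchronized at ring stage by sorbitol before testing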
[16] = RKO cell viability reduction, dose response, CellTiter-Glo luminescence (AID 1117322); type: functional
[17] = cytotoxicity toward HCT116 cells – cell-based, CellTiter-Glo luminescence, IC50, dose response (AID 1117332); type: functional; details: HCT-116
[18] = SNU-C1 cell viability reduction, dose response, CellTiter-Glo luminescence (AID 1117323); type: functional, cell-based
[19] = cytotoxicity toward Colo320 cells – cell-based, CellTiter-Glo luminescence, IC50, dose response (AID 1117334); type: functional; details: COLO 320
[20] = cytotoxicity toward HT-29 cells – cell-based, CellTiter-Glo luminescence, IC50, dose response (AID 1117330); type: functional
[21] = Reduced DLD-1 viability, concentration-response, CellTiter-Glo luminescence (AID 1117352); type: functional
[22] = HCT116 cell viability decrease, GSK3B pretreatment – CellTiter-Glo, IC50, dose response (AID 1117339); type: functional; details: HCT-116

Vasopressin V2 receptor, sequence (P30518 whole entry): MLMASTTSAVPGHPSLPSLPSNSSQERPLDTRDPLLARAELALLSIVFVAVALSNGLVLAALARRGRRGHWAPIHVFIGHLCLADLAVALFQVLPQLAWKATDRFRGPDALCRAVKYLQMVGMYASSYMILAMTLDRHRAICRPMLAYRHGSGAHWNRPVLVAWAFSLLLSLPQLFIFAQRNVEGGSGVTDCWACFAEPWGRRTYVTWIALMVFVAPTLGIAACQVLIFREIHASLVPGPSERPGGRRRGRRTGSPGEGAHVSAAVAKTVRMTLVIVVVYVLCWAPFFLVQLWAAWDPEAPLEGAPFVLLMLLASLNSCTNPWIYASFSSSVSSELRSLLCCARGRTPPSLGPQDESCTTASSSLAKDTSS
Vasopressin V1b receptor, sequence (P47901 whole entry): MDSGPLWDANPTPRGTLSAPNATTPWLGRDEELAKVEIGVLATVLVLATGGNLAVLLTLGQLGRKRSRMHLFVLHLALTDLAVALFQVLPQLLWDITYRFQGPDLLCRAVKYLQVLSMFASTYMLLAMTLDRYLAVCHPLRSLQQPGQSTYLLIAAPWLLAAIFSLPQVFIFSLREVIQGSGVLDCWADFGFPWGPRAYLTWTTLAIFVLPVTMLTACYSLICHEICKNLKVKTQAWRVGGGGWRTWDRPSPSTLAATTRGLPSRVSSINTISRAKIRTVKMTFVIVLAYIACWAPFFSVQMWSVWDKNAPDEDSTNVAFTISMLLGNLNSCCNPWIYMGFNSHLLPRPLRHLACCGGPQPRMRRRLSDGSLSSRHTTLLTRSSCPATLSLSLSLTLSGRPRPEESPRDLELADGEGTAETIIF

## Cc1cc(C)c(S(=O)(=O)Nc2cc(C(C(=O)OC(C)C)C(=O)C(F)(F)F)c(O)c3ccccc23)c(C)c1 (stereo not given)
[1]
  AC50: > 52 µM (inactive)

## Cc1ccccc1N1CCN(C(=O)N(CC2CC2)c2ccc(Cl)cc2)CC1
[2]
  IC50: 0.0027 µM (active)
Vasopressin V1b receptor
  IC50: 12.8 µM (inactive)
Vasopressin V2 receptor
  IC50: 1.02 µM (active)
[3]
  IC50: 0.046 µM (active)

## COc1cccc(-c2ccc([C@H]3[C@H]4CN(C(=O)Cc5ccncc5)CCCCN4[C@H]3CO)cc2)c1
[4]
  AC50: 9.34 µM (active)
[5]
  AC50: 2.79 µM (active)

## C[C@@H]1CCCCO[C@H](CN(C)S(=O)(=O)c2ccc(F)cc2)[C@@H](C)CN([C@H](C)CO)C(=O)c2cc(N(C)C)ccc2O1
[6]
  AC50: 11.4 µM (active)

## Cc1ccc(C(C)C)c(OCCn2c(=O)[nH]c3ccccc32)c1
[7]
  AC50: 23.1 µM (active)
cells
  AC50: 32.4 µM (active)

## CN(C)C(=O)c1ccc(N2CCN(C(=O)c3ccc4c(c3)OCO4)CC2)cc1
[8]
  AC50: 14 µM (active)

## CO[C@@H]1CN(C)C(=O)c2ccc(NC(=O)Nc3ccccc3Cl)cc2OC[C@@H](C)N(C)C[C@H]1C
[9]
  AC50: 4.25 µM (active)
[10]
  AC50: 62.2 µM (active)
[11]
  AC50: 0.666 µM (active)
[12]
  AC50: 0.102 µM (active)
[13]
  AC50: > 39 µM (inactive)
[14]
  AC50: 0.446 µM (active)
[15]
  AC50: 0.512 µM (active)

## Cc1ccc2c(Br)cc(Br)c(O)c2n1 [BROQUINALDOL]
[16]
  IC50: 0.311 µM (active)
[17]
  IC50: 1.16 µM (active)
[18]
  IC50: 12.8 µM (inactive)
[19]
  IC50: 0.001 µM (active)
[20]
  IC50: > 6.67 µM (inactive)
[21]
  IC50: 4.77 µM (active)
[22]
  IC50: 1.03 µM (active)
